# Read-outs that look alike come from different tables or passages of the source.
# Key:
# [1] = TNS assay, surface pKa of lipid nanoparticles; assay type: physicochemical
# How it was run: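 Empty LNPs containing the ionizable lipid (LM02 composition, 0.781 mM total lipid before mixing) were combined with TNS in 10 mM HEPES, 10 mM MES, 10 mM NH4OAc, 130 mM NaCl buffers at pH 3–9 in 0.5 steps. Fluorescence was read at room temperature (ex 321/em 445 nm); pKa was taken as the pH of half-maximal intensity from a sigmoidal fit.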
# primary human T cells = experiment: EPO ELISA after EPO mRNA LNP treatment of primary human T cells; assay type: cell-based
# Experimental: Reagents were acquired from Quantikine, Minneapolis, MN. The assay was performed as directed on the Quantikine® IVD® ELISA Human Erythropoietin Immunoassay protocol. REF DEP00 Package Insert. Briefly; primary human T cells were isolated from fresh whole blood using a negative selection protocol and activated using a triple activator. Seven days post-activation, T cells were dosed with mRNA LNPs encoding EPO at 2 pg mRNA per 500,000 cells and N/P 10. Quantikine® Human Serum Controls were used. After 48 hours of treatment with mRNA LNPs the T cells were harvested and lysed for cytosolic EPO and media supernatant was sampled for secreted EPO. Table 5 includes the data of FIG. 6 as well as the fold increase of EPO for PNI 76 and 121 versus MC3.
# human T cells = experiment: eGFP ELISA after eGFP mRNA LNP treatment of human T cells; assay type: cell-based; details: FIG. 3; CT10, N/P 10, 10 days post-activation, 48 hours
# Experimental: Reagents were acquired from Abcam, Cambridge, UK unless otherwise stated. […] The assay was performed as directed by the eGFP SimpleStep ELISA® Kit protocol. Briefly; frozen human T cells, previously isolated from fresh human whole blood using a negative selection protocol, were thawed and activated using a triple activator. […] After 48 hours of treatment with mRNA LNPs the T cells were harvested and lysed for total eGFP content.
# In order to expose the isolated and activated T cells (Day 0) to the formulated mRNA, 2 ug of CleanCap™ eGFP (Trilink Biotechnologies, San Diego, CA) mRNA-containing LNP was added to 500,000 T cells in 1 mL of complete T cell media, with 1 ug/mL of Recombinant Human ApoE4 (“ApoE”) (Peprotech Inc., Montreal, Canada).
# Frozen human T cells, previously isolated from fresh human whole blood using a negative selection protocol, were thawed and activated using a triple activator. At 10 days post-activation, T cells were dosed with CT10 mRNA LNPs LNP comprising DLin-MC3-DMA, PNI 76, PNI 119, PNI 120, PNI 121, and PNI 122 encoding eGFP at 2 pg mRNA per 500,000 cells and N/P 10. Protein expression was measured after 48 hours by eGFP ELISA.
# [2] = Nucleic acid encapsulation efficiency by RiboGreen assay; assay type: physicochemical
# [3] = system: isolated primary human T cells; experiment: CD19 CAR expression in primary human T cells by mRNA-LNPs; assay type: cell-based; details: FIG. 11; CT10, N/P 8, 48 h
# Experimental: MRNA containing IL with CT10 composition at N/P 8 was assayed after in vitro exposure. The CAR vector pcDNA3.1 anti-CD19-h(BB Lambda)-EGFP-2nd-CAR (T7 Mut) 7661 bp was purchased from Creative BioLabs, NY, USA.
# T cells were isolated from whole blood using a negative isolation procedure and T cell activation, and expansion was carried out by triple activation in ImmunoCult™ Human T Cell Expansion Media as described supra.
# [4] = Table 1, formulated lipid nanoparticles, TNS assay, read-out: Exp. pKa
# [5] = Table 6, GFP-encoded LNPs, CT10, N/P 8
# [6] = Table 7, EPO mRNA LNPs, LM02, N/P 6
"pKa [1, 4]","pKa ([1]; Table 5, read-out: pKa Exp.)","pKa ([1]; Table 8, read-out: Exp.pKa)","Encapsulation Efficiency (%) [2, 5] [%]","Encapsulation Efficiency (%) [2, 6] [%]",SMILES,"EPO expression compared with MC3 (primary human T cells; FIG. 6, N/P 10, 48 hours)",EPO Fold Change Relative to MC3 (primary human T cells; Table 5),"EPO concentration (mIU/mL) (primary human T cells; Table 5, EPO mRNA LNPs, 2 pg mRNA per 500,000 cells, N/P 10, 48 hours)",eGFP expression by eGFP ELISA compared with MC3 (human T cells),CD19 CAR expression compared with PBS [3]
6.83,6.83,6.8,87.3,98.8,CCCCC/C=C\C/C=C\CCCCCCCC(=O)O[C@@H]1[C@@H](OC(=O)CCCCCCC/C=C\C/C=C\CCCCC)CO[C@@H]1COC(=O)CCCN(C)C (racemic) [PNI 121],higher than those containing MC3,1.86,1009.0,greater than that of MC3,–
6.09,–,6.09,92.5,96.2,CCCCC/C=C\C/C=C\CCCCCCCC(=O)O[C@@H]1[C@@H](OC(=O)CCCCCCC/C=C\C/C=C\CCCCC)CO[C@@H]1COC(=O)C1CCN(C)C1 (mixture of isomers) [PNI 328],–,–,–,–,greater than PBS
5.88,–,5.88,93.2,94.4,CCCCC/C=C\C/C=C\CCCCCCCC(=O)O[C@@H]1[C@@H](OC(=O)CCCCCCC/C=C\C/C=C\CCCCC)CO[C@@H]1COC(=O)C1(C)CCN(C)C1 (mixture of isomers) [PNI 329],–,–,–,–,greater than PBS
6.6,–,6.6,–,88.2,CCCCC/C=C\C/C=C\CCCCCCCC(=O)O[C@@H]1[C@@H](OC(=O)CCCCCCC/C=C\C/C=C\CCCCC)CO[C@@H]1COC(=O)CCCN1CCCC1 (racemic) [PNI 539],–,–,–,–,–

# Reference: patent publication US12636368B2, “Ionizable lipids for nucleic acid delivery” (Global Life Sciences Solutions Canada ULC, priority 2019, dated 2026)
